Earlier results, collected in patent publication US20260335331A1, “ORAL FORMULATION OF DIAMINOPHENOTHIAZINES AND METHODS OF MAKING AND USING THE SAME IN THE TREATMENT AND/OR PREVENTION OF DISEASES” (priority 2022, published 2026).

Test system: Macrorhabdus ornithogaster
Settings: background statement

SMILES: C[C@@H]1[C@H](O)[C@@H](C)/C=C/C=C/C=C/C=C/C=C/C=C/C=C/[C@H](O[C@@H]2O[C@H](C)[C@@H](O)[C@H](N)[C@@H]2O)C[C@@H]2O[C@](O)(C[C@@H](O)C[C@@H](O)[C@H](O)CC[C@@H](O)C[C@@H](O)CC(=O)O[C@H]1C)C[C@H](O)[C@H]2C(=O)O [amphotericin B]
- success in treatment of avian megalobacteriosis: Some success has been observed
